# According to patent US20140010939A1, “Sweetness Enhancers, Sweetener Compositions, Methods of Making the Same and Consumables Containing the Same” (Nutrinova Nutrition Specialties & Food Ingredients GmbH, priority 2011, published 2014):
# Columns and labels:
# [1] = Taste and spit assay phase I - qualitative assessment; format: in vivo; conditions: 20 μM in 0.5% ethanol, 10 ml samples, 5 individuals, ambient temperature
# Description: The taste of a sample of compound of formula (Ia) with regard to sweetness and fructose enhancing features was assessed by using a panel of trained sensory evaluators experienced in the sweet taste estimation procedure. 5 individuals were asked to taste the quality of single samples of 10 ml volume. Panelists were asked to take a sample of the liquid to be assessed (20 μM test substance compound of formula (Ia) in 0.5% ethanol) into the mouth and after some time allowed for taste perception to spit the sample out completely. Subsequently, the panelists were asked to rinse their mouth well with water or black tea to reduce any potential carry over effects. The tasting of a sample could be repeated if required. In a first descriptive test 5 individuals were asked to taste the quality of single samples of 10 ml volume (maximum 3 subsequent samples). The samples were served at ambient temperature. The individuals of the taste panel were asked to answer the following questions with regard to the quality of taste: 1) does the sample taste sweet?, 2) is there another taste detectable (bitter, sour, salty, umami)?, 3) is there an off- or aftertaste?, 4) is there anything else remarkable about the perception of the sample?
# [2] = Solubility assessment in buffer (visual check by two persons); format: physicochemical
# Description: 20 μmol (8.96 mg) of the compound of formula (Ia) were used for samples preparation. The samples were partitioned into two portions for each buffer system and placed into 1.6 ml glass vials. To each of the vials 100 μl of the respective buffer solution was added to prepare the 100 mM samples. All Samples were thoroughly sonicated and vortexed to yield homogenous solutions or suspensions. The resulting set of samples consisted of • Compound of formula (Ia)—100 mM, buffer 3.0 • Compound of formula (Ia)—100 mM, buffer 6.5
# In a second step from each of the prior listed samples 7.5 μl were pipetted into 1.6 ml glass vials followed by addition of 142.5 μl of the respective buffer solution. The resulting set of samples consisted of: • Compound of formula (Ia)—5 mM, buffer 3.0 • Compound of formula (Ia)—5 mM, buffer 6.5
# In a third step, after sonication and vortexing to yield homogenous solutions or suspensions, 25 μl from each of the samples listed above were pipetted into 1.6 ml glass vials followed by addition of 100 μl of the respective buffer solution. The resulting set of samples consisted of: • Compound of formula (Ia)—1 mM, buffer 3.0 • Compound of formula (Ia)—1 mM, buffer 6.5
# After the preparation of all 6 samples, the entire set was sonicated and vortexed again.
# Afterwards the set of 6 samples was placed into a deep freezer and stored at −22° C. for 72 h. After that period, the samples were thawed, sonicated, and vortexed.
# In a final step the set of 6 samples was placed into a dark box at 23° C. for 72 h. After that period, the samples were sonicated, and vortexed.
# The results of the solubility study are documented in three tables. Three categories for the state of solution are in generally used: “Yes”, “Incomplete” and “No”. The category “Yes” is only used in case of a clear flawless solution. The category “Incomplete” is used in case of a visible strong reduction of undissolved matter. The category “No” was used for all other cases.
smiles,measurement,setting,value
CC(=O)N(O)CCCCCNC(=O)C(O)(CC(=O)O)CC(=O)NCCCN(O)C(C)=O (stereo not drawn) [compound of formula (Ia)],"Characteristic taste of the sample (sweet, bitter, sour, salty, umami)",[1],No characteristic taste was identified
same,Off- or aftertaste,[1],no off-taste was detected
same,Dissolved after freezing/thawing,"[2]; 1 mM, buffer 3.0, after −22° C. for 72 h and thawing",yes
same,Dissolved after three days at room temperature,"[2]; 1 mM, buffer 3.0, dark box at 23° C. for 72 h",yes
same,Immediately dissolved,"[2]; 1 mM, buffer 3.0, directly after sample preparation",yes
same,Dissolved after freezing/thawing,"[2]; 1 mM, buffer 6.5, after −22° C. for 72 h and thawing",yes
same,Dissolved after three days at room temperature,"[2]; 1 mM, buffer 6.5, dark box at 23° C. for 72 h",yes
same,Immediately dissolved,"[2]; 1 mM, buffer 6.5, directly after sample preparation",yes
same,Dissolved after freezing/thawing,"[2]; 5 mM, buffer 3.0, after −22° C. for 72 h and thawing",yes
same,Dissolved after three days at room temperature,"[2]; 5 mM, buffer 3.0, dark box at 23° C. for 72 h",yes
same,Immediately dissolved,"[2]; 5 mM, buffer 3.0, directly after sample preparation",yes
same,Dissolved after freezing/thawing,"[2]; 5 mM, buffer 6.5, after −22° C. for 72 h and thawing",yes
same,Dissolved after three days at room temperature,"[2]; 5 mM, buffer 6.5, dark box at 23° C. for 72 h",yes
same,Immediately dissolved,"[2]; 5 mM, buffer 6.5, directly after sample preparation",yes
same,Dissolved after freezing/thawing,"[2]; 100 mM, buffer 3.0, after −22° C. for 72 h and thawing",yes
same,Dissolved after three days at room temperature,"[2]; 100 mM, buffer 3.0, dark box at 23° C. for 72 h",yes
same,Immediately dissolved,"[2]; 100 mM, buffer 3.0, directly after sample preparation",yes
same,Dissolved after freezing/thawing,"[2]; 100 mM, buffer 6.5, after −22° C. for 72 h and thawing",yes
same,Dissolved after three days at room temperature,"[2]; 100 mM, buffer 6.5, dark box at 23° C. for 72 h",yes
same,Immediately dissolved,"[2]; 100 mM, buffer 6.5, directly after sample preparation",yes
same,Solubility (overall),"[2]; summary: 1, 5 and 100 mM in water with buffer at pH 3.0 and 6.5",immediately dissolved at all conditions
